In US20060046981A1, “Anti-nonmelanoma carcinoma compounds, compositions, and methods of use thereof” (GILEAD SCIENCES, INC., priority 2003, published 2006):
Where two headings read alike, the source gives them in different places.

Tests used:
SiHa cells = test: Antiproliferation assay (7 days, Sulforhodamine B) in SiHa cells; format: cell-based, human; settings: for Selectivity (HEL/SiHa): HEL EC50 divided by SiHa EC50; for Selectivity for SiHa cells compared with HEL cells: Example 80, also versus PHK keratinocytes, fold
Procedure: Antiproliferation assays measure effect of compounds on proliferation of cultured cells. Cells are cultured for 7 days in the presence of various concentrations of compounds. On the 7th day, cells are stained with dye, and intensity of staining (proportional to cell number) is measured by spectrophotometer.
(§1) Cells were detached from culture flasks using trypsin, counted, and plated in 96-well culture plates (250-1000 cells per well, depending on cell type). On the next day (defined as day 0), after cells attached to the bottom of plates, 5-fold serial dilutions of compounds were added in duplicate. No compound and 10 μM colchicine (cell division inhibitor) was added to control wells, which would represent 100% proliferation and 0% proliferation, respectively.
(§2) Seven days after addition of compounds, culture plates were treated with 10% trichloroacetic acid at 4° C. for 1 hr, then washed with water. This procedure allows cell-derived proteins to bind to the bottom surface of plates. Proteins were stained with 0.4% Sulforhodamine B in 1% acetic acid for 10 minutes, followed by extensive washing with 1% acetic acid. Remaining dye bound to the bottom of plates was dissolved in 10 mM Trizma base. This generated purple color that was quantified by measuring the absorbance at 510 nm wavelength, using spectrophotometer.
(§3) Cells were detached from culture flasks using trypsin, counted, and plated in 96-well culture plates ([…], depending on cell type). On the next day (defined as day 0), 5-fold serial dilutions of compounds were added in duplicate. Seven days after addition of compounds, culture plates were treated with 10% trichloroacetic acid at 4° C. for 1 hr and washed with water. This procedure allows cellular proteins to bind to the bottom surface of plates. Proteins were stained with 0.4% Sulforhodamine B in 1% acetic acid for 10 minutes, followed by extensive washing with 1% acetic acid. Remaining dye bound to the bottom of plates was solubilized in 10 mM Trizma base, generating purple color. Intensity of the color (proportional to cell number) was quantified by measuring the absorbance at 510 nm wavelength, using spectrophotometer. […] GraphPad Prism version 4.00 for Windows (GraphPad Software, San Diego Calif. USA) was used for the curve fitting and EC50 calculation.

HEL cells = test: Antiproliferation assay (7 days, Sulforhodamine B) in HEL fibroblasts; format: cell-based, human; settings: read-out: Antiproliferation EC50 HEL lung fibroblast
Procedure: as §1, §2, §3

PHK skin keratinocytes = test: cells; format: cell-based; settings: Homo sapiens, Keratinocyte; Table 79-3; read-out: Antiproliferation EC50 PHK skin keratinocytes
[1] = tested on: CK cervical keratinocytes; test: cells; format: cell-based; settings: Homo sapiens, Keratinocyte; Table 79-3; read-out: Antiproliferation EC50 CK cervical keratinocytes
CaSki cells = test: Antiproliferation assay in CaSki cells; format: cell-based; settings: Homo sapiens, Ca-Ski; Table 79-4; read-out: Antiproliferation EC50 in HPV positive carcinoma cells CaSki HPV16
HeLa cells = test: Antiproliferation assay in HeLa cells; format: cell-based; settings: Homo sapiens, Table 79-4, read-out: Antiproliferation EC50 in HPV positive carcinoma cells HeLa HPV18
MS751 cells = test: Antiproliferation assay in MS751 cells; format: cell-based; settings: Homo sapiens, Table 79-4, read-out: Antiproliferation EC50 in HPV positive carcinoma cells MS-751 HPV18
C-4 I cells = test: Antiproliferation assay in C-4 I cells; format: cell-based; settings: Homo sapiens, Table 79-4, read-out: Antiproliferation EC50 in HPV positive carcinoma cells C-41 HPV18
ME-180 cells = test: Antiproliferation assay in ME-180 cells; format: cell-based; settings: Homo sapiens, Table 79-4, read-out: Antiproliferation EC50 in HPV positive carcinoma cells ME-180 HPV39
HT-3 cells = test: Antiproliferation assay in HT-3 cells; format: cell-based; settings: Homo sapiens, Table 79-4, read-out: Antiproliferation EC50 in HPV negative carcinoma cells HT-3 cervix
SCC-4 cells = test: Antiproliferation assay in SCC-4 cells; format: cell-based; settings: Homo sapiens, Table 79-4, read-out: Antiproliferation EC50 in HPV negative carcinoma cells SCC-4 tongue
SCC-9 cells = test: Antiproliferation assay in SCC-9 cells; format: cell-based; settings: Homo sapiens, Table 79-4, read-out: Antiproliferation EC50 in HPV negative carcinoma cells SCC-9 tongue
HPV-16 SiHa cells = format: cell-based, human; settings: day 7, 0.2 μg/mL, Annexin V-Propidium iodide double staining
[2] = Table 79-2, 7 days, read-out: Antiproliferation EC50 SiHa cervical carcinoma (HPV16)
[3] = Homo sapiens, SiHa, 168 h, Table 79-2, 7 days, read-out: Antiproliferation EC50 SiHa cervical carcinoma (HPV16)
[4] = Homo sapiens, SiHa, Table 79-3, read-out: Antiproliferation EC50 SiHa cervical carcinoma (HPV16)
[5] = Homo sapiens, HEL, 168 h, Table 79-2, 7 days

## C[C@@]1(CO)[C@H](O)CC[C@@]2(C)[C@H]1CC[C@H]1C[C@@H]3C[C@@]12CC[C@]3(O)CO [Aphidicolin (+), Aphidicolin]
SiHa cells; Table 79-2
  Selectivity (HEL/SiHa): 0.40
SiHa cells; [2]
  EC50: 856 nM
HEL cells; Table 79-2, 7 days
  EC50: 324 nM

## Nc1ccn([C@@H]2O[C@H](CO)[C@@H](O)[C@@H]2O)c(=O)n1 [AraC, cytarabine]
SiHa cells
  Selectivity for SiHa cells compared with HEL cells: did not show such selectivity
SiHa cells; Table 79-2
  Selectivity (HEL/SiHa): 0.113
SiHa cells; [3]
  EC50: 257 nM
SiHa cells; [4]
  EC50: 257 nM
SiHa cells; Homo sapiens, SiHa, Table 79-4, read-out: Antiproliferation EC50 in HPV positive carcinoma cells SiHa HPV16
  EC50: 257 nM
SiHa cells; Homo sapiens, six HPV positive cell lines: SiHa, CaSki, HeLa, MS751, C-4I, ME-180, read-out: Antiproliferation EC50 values, range over all cell lines
  EC50: 94 to 257 nM
SiHa cells; Table 79-3
  Selectivity (CK/SiHa): 0.4
  Selectivity (PHK/SiHa): 0.57
HEL cells; [5]
  EC50: 29 nM
PHK skin keratinocytes
  EC50: 147 nM
[1]
  EC50: 107 nM
CaSki cells
  EC50: 94 nM
HeLa cells
  EC50: 174 nM
MS751 cells
  EC50: 144 nM
C-4 I cells
  EC50: 123 nM
ME-180 cells
  EC50: 101 nM
HT-3 cells
  EC50: 214 nM
SCC-4 cells
  EC50: 74 nM
SCC-9 cells
  EC50: 68 nM

## Nc1ccn(C[C@@H](CO)OCP(=O)(O)O)c(=O)n1 [Cidofovir]
SiHa cells; Table 79-2
  Selectivity (HEL/SiHa): 0.3
SiHa cells; [3]
  EC50: 84000 nM
HEL cells; [5]
  EC50: 28000 nM

## CN(C)/N=N/c1[nH]cnc1C(N)=O [Dacarba-zine, Dacarbazine]
SiHa cells; Table 79-2
  Selectivity (HEL/SiHa): 3.98
SiHa cells; [3]
  EC50: 7400 nM
HEL cells; [5]
  EC50: 29500 nM

## C[C@H]1O[C@@H](n2cc(F)c(=O)[nH]c2=O)[C@H](O)[C@@H]1O [Doxifluridine]
SiHa cells; Table 79-2
  Selectivity (HEL/SiHa): 0.449
SiHa cells; [3]
  EC50: 8760 nM
HEL cells; [5]
  EC50: 3930 nM

## COc1cccc2c1C(=O)c1c(O)c3c(c(O)c1C2=O)C[C@@](O)(C(=O)CO)C[C@@H]3O[C@H]1C[C@H](N)[C@H](O)[C@H](C)O1 [Doxorubicin]
SiHa cells; Table 79-2
  Selectivity (HEL/SiHa): 0.43
SiHa cells; [3]
  EC50: 9.76 nM
HEL cells; [5]
  EC50: 4.2 nM

## Cc1c2ccncc2c(C)c2c1[nH]c1ccccc12 [Ellipticine]
SiHa cells; Table 79-2
  Selectivity (HEL/SiHa): 1.02
SiHa cells; [3]
  EC50: 478 nM
HEL cells; [5]
  EC50: 486 nM

## COc1cc([C@@H]2c3cc4c(cc3[C@@H](O[C@@H]3O[C@@H]5CO[C@@H](C)O[C@H]5[C@H](O)[C@H]3O)[C@H]3COC(=O)[C@H]23)OCO4)cc(OC)c1O [Etoposide]
SiHa cells; Table 79-2
  Selectivity (HEL/SiHa): 0.31
SiHa cells; [3]
  EC50: 469 nM
HEL cells; [5]
  EC50: 144 nM

## COc1cc2c(c(N)c1OC)C(=O)/C(=C\c1cc(C)c(O)c(C)c1)C2 [Indanosine, Indanocine]
SiHa cells; Homo sapiens, SiHa, 168 h, read-out: Antiproliferation EC50 SiHa cervical carcinoma (HPV16)
  EC50: 588 nM
HEL cells; Homo sapiens, HEL, 168 h
  EC50: 159 nM

## O=C1c2c(O)ccc(O)c2C(=O)c2c(NCCNCCO)ccc(NCCNCCO)c21 [Mitoxantrone]
SiHa cells; Table 79-2
  Selectivity (HEL/SiHa): <0.37
SiHa cells; [3]
  EC50: 8.67 nM
HEL cells; [5]
  EC50: < 3.2 nM

## Nc1nc2c(ncn2CCOCP(=O)(O)O)c(=O)[nH]1 [PMEG, 9-(2-phosphonylmethoxyethyl)guanine]
SiHa cells
  Selectivity for SiHa cells compared with HEL cells: did not show such selectivity
SiHa cells; Table 79-2
  Selectivity (HEL/SiHa): 4.1
SiHa cells; [3]
  EC50: 207 nM
SiHa cells; [4]
  EC50: 207 nM
SiHa cells; Table 79-3
  Selectivity (CK/SiHa): 2.4
  Selectivity (PHK/SiHa): 0.48
HEL cells; [5]
  EC50: 861 nM
PHK skin keratinocytes
  EC50: 101 nM
[1]
  EC50: 501 nM
HPV-16 SiHa cells
  % of apoptotic cells in the culture: 1.2%

## COc1cc([C@@H]2c3cc4c(cc3[C@H](O)[C@H]3COC(=O)[C@H]23)OCO4)cc(OC)c1OC [Podofilox]
SiHa cells
  Selectivity for SiHa cells compared with HEL cells: showed no selectivity

## CC[C@]1(O)C[C@@H]2CN(CCc3c([nH]c4ccccc34)[C@@](C(=O)OC)(c3cc4c(cc3OC)N(C)[C@H]3[C@@](O)(C(=O)OC)[C@H](OC(C)=O)[C@]5(CC)C=CCN6CC[C@]43[C@@H]65)C2)C1 [Vinblastine]
SiHa cells; Table 79-2
  Selectivity (HEL/SiHa): 0.39
SiHa cells; [3]
  EC50: 0.68 nM
HEL cells; [5]
  EC50: 0.27 nM

## CC[C@]1(O)C[C@H]2CN(CCc3c([nH]c4ccccc34)[C@@](C(=O)OC)(c3cc4c(cc3OC)N(C=O)[C@H]3[C@@](O)(C(=O)OC)[C@H](OC(C)=O)[C@]5(CC)C=CCN6CC[C@]43[C@@H]65)C2)C1 [Vincristine]
SiHa cells; Table 79-2
  Selectivity (HEL/SiHa): 1.55
SiHa cells; [3]
  EC50: 1.24 nM
HEL cells; [5]
  EC50: 1.92 nM

## Nc1ccn([C@@H]2O[C@H](CO)[C@@H](O)C2(F)F)c(=O)n1 [gemcitabine]
SiHa cells
  Selectivity for SiHa cells compared with HEL cells: did not show such selectivity

## Bleomycin
SiHa cells; Table 79-2
  Selectivity (HEL/SiHa): 0.01
SiHa cells; [2]
  EC50: 3140 nM
HEL cells; Table 79-2, 7 days
  EC50: 20.3 nM
